Active and inactive are the calls of the source. The calls are words filed in the database; no cut-off is given here.
Each compound was assayed on 3T3-L1 (assay: Anti-adipogenic activity against mouse 3T3-L1 cells assessed as decrease in triglyceride level incubated for […] by Oil Red O staining based microscopic analysis). Details: not given.
Format: functional, cell-based

SMILES	IC50 [nM]
C=C(C)[C@@]12OC3(c4ccccc4)O[C@@H]1[C@@H]1[C@H](O)[C@](Cl)(COC(=O)c4ccccc4)[C@@H](OC(=O)CCCCCNC(=O)CCCC[C@@H]4SC[C@@H]5NC(=O)N[C@@H]54)[C@]4(O)C(=O)C(C)=C[C@H]4[C@@]1(O3)[C@H](C)[C@H]2OC(C)=O	1050

These compounds were tested on 3T3-L1 (assay: Anti-adipogenic activity against mouse 3T3-L1 cells assessed as decrease in triglyceride level at 1 uM by Oil Red O staining based spectroscopic analysis). Details: not given.
Format: functional
Set-up: scale not given: the % may be the effect or the level left

SMILES	Activity [%]
C=C(C)[C@@]12OC3(/C=C/C=C/CCCCC)O[C@@H]1[C@@H]1[C@@H]4O[C@]4(COC(C)=O)[C@@H](OC(C)=O)[C@]4(O)C(=O)C(C)=C[C@H]4[C@@]1(O3)[C@H](C)[C@H]2OC(=O)c1ccccc1	>50
C=C(C)[C@@]12OC3(c4ccccc4)O[C@@H]1[C@@H]1[C@@H]4O[C@]4(COC(C)=O)[C@@H](O)[C@]4(O)C(=O)C(C)=C[C@H]4[C@@]1(O3)[C@H](C)[C@H]2OC(C)=O	>50
C=C(C)[C@@]12OC3(/C=C/C=C/CCCCC)O[C@@H]1[C@@H]1[C@@H]4O[C@]4(CO)[C@@H](O)[C@]4(O)C(=O)C(C)=C[C@H]4[C@@]1(O3)[C@H](C)[C@H]2OC(C)=O	>50
C=C(C)[C@@]12OC3(c4ccccc4)O[C@@H]1[C@@H]1[C@@H](Cl)[C@@](O)(CO)[C@@H](O)[C@]4(O)C(=O)C(C)=C[C@H]4[C@@]1(O3)[C@H](C)[C@H]2OC(C)=O	>50
C=C(C)[C@@]12OC3(c4ccccc4)O[C@@H]1[C@@H]1[C@@H]4O[C@]4(COC(=O)c4ccccc4)[C@@H](O)[C@]4(O)C(=O)C(C)=C[C@H]4[C@@]1(O3)[C@H](C)[C@H]2OC(=O)c1ccccc1	>50
C=C(C)[C@@]12OC3(/C=C/C=C/CCCCC)O[C@@H]1[C@@H]1[C@@H]4O[C@]4(COC(C)=O)[C@@H](OC(C)=O)[C@]4(O)C(=O)C(C)=C[C@H]4[C@@]1(O3)[C@H](C)[C@H]2OC(C)=O	>50
C=C(C)[C@@]12OC3(c4ccccc4)O[C@@H]1[C@@H]1[C@@H]4O[C@]4(CO)[C@@H](O)[C@]4(O)C(=O)C(C)=C[C@H]4[C@@]1(O3)[C@H](C)[C@H]2OC(=O)CCC	>50
C=C(C)[C@@]12OC3(c4ccccc4)O[C@@H]1[C@@H]1[C@@H]4O[C@]4(CO)[C@@H](O)[C@]4(O)C(=O)[C@@H](C)C[C@H]4[C@@]1(O3)[C@H](C)[C@H]2OC(=O)c1ccccc1	>50
C=C(C)[C@@]12OC3(c4ccccc4)O[C@@H]1[C@@H]1[C@@H](Cl)[C@@](O)(CO)[C@@H](O)[C@]4(O)C(=O)C(C)=C[C@H]4[C@@]1(O3)[C@H](C)[C@H]2OC(=O)c1ccccc1	>50
C=C(C)[C@@]12OC3(/C=C/C=C/CCCCC)O[C@@H]1[C@@H]1[C@@H]4O[C@]4(CO)[C@@H](O)[C@]4(O)C(=O)C(C)=C[C@H]4[C@@]1(O3)[C@H](C)[C@H]2OC(=O)c1ccccc1	>50
C=C(C)[C@@]12OC3(/C=C/C=C/CCCCC)O[C@@H]1[C@@H]1[C@@H]4O[C@]4(CO)[C@@H](O)[C@]4(O)C(=O)C(C)=C[C@H]4[C@@]1(O3)[C@H](C)[C@H]2OC(=O)CCC	>50
C=C(C)[C@@]12OC3(/C=C/C=C/CCCCC)O[C@@H]1[C@@H]1[C@@H]4O[C@]4(COC(C)=O)[C@@H](O)[C@]4(O)C(=O)C(C)=C[C@H]4[C@@]1(O3)[C@H](C)[C@H]2OC(C)=O	>50
C=C(C)[C@@]12OC3(/C=C/C=C/CCCCC)O[C@@H]1[C@@H]1[C@@H]4O[C@]4(COC(C)=O)[C@@H](O)[C@]4(O)C(=O)C(C)=C[C@H]4[C@@]1(O3)[C@H](C)[C@H]2OC(=O)c1ccccc1	>50
C=C(C)[C@@]12OC3(/C=C/C=C/CCCCC)O[C@@H]1[C@@H]1[C@@H]4O[C@]4(COC(=O)c4ccccc4)[C@@H](O)[C@]4(O)C(=O)C(C)=C[C@H]4[C@@]1(O3)[C@H](C)[C@H]2OC(C)=O	>50
C=C(C)[C@@]12OC3(c4ccccc4)O[C@@H]1[C@@H]1[C@@H]4O[C@]4(CO)[C@@H](O)[C@]4(O)C(=O)C(C)=C[C@H]4[C@@]1(O3)[C@H](C)[C@H]2OC(=O)c1ccccc1	>50
C=C(C)[C@@]12OC3(c4ccccc4)O[C@@H]1[C@@H]1[C@@H]4O[C@]4(COC(=O)c4ccccc4)[C@@H](O)[C@]4(O)C(=O)C(C)=C[C@H]4[C@@]1(O3)[C@H](C)[C@H]2OC(C)=O	>50
C=C(C)[C@@]12OC3(c4ccccc4)O[C@@H]1[C@@H]1[C@@H]4O[C@]4(CO)[C@@H](O)[C@]4(O)C(=O)C(C)=C[C@H]4[C@@]1(O3)[C@H](C)[C@H]2OC(C)=O	>50
C=C(C)[C@@]12OC3(c4ccccc4)O[C@@H]1[C@@H]1[C@@H]4O[C@]4(CO)[C@@H](O)[C@]4(O)C(=O)C(C)=C[C@H]4[C@@]1(O3)[C@H](C)[C@H]2OC(=O)CC	>50
C=C(C)[C@@]12OC3(c4ccccc4)O[C@@H]1[C@@H]1[C@H](O)[C@](Cl)(CO)[C@@H](O)[C@]4(O)C(=O)C(C)=C[C@H]4[C@@]1(O3)[C@H](C)[C@H]2OC(=O)c1ccccc1	>50
C=C(C)[C@@]12OC3(c4ccccc4)O[C@@H]1[C@@H]1[C@@H]4O[C@]4(COC(C)=O)[C@@H](O)[C@]4(O)C(=O)C(C)=C[C@H]4[C@@]1(O3)[C@H](C)[C@H]2OC(=O)c1ccccc1	>50
C=C(C)[C@@]12OC3(c4ccccc4)O[C@@H]1[C@@H]1[C@@H](Cl)[C@@](O)(COC(=O)c4ccccc4)[C@@H](O)[C@]4(O)C(=O)C(C)=C[C@H]4[C@@]1(O3)[C@H](C)[C@H]2OC(C)=O	>50
C=C(C)[C@@]12OC3(c4ccccc4)O[C@@H]1[C@@H]1[C@H](O)[C@](Cl)(CO)[C@@H](O)[C@]4(O)C(=O)C(C)=C[C@H]4[C@@]1(O3)[C@H](C)[C@H]2OC(C)=O	>50

What follows are compounds tested against Regulatory-associated protein of mTOR (Mus musculus) (UniProt Q8K4Q0) (assay: Binding affinity to Raptor in mouse 3T3-L1 cells at 1 to 10 uM incubated overnight by pull-down assay). Details: dose 1-10 µM.
Regulatory-associated protein of mTOR (Mus musculus), sequence (Q8K4Q0 whole entry, looked up): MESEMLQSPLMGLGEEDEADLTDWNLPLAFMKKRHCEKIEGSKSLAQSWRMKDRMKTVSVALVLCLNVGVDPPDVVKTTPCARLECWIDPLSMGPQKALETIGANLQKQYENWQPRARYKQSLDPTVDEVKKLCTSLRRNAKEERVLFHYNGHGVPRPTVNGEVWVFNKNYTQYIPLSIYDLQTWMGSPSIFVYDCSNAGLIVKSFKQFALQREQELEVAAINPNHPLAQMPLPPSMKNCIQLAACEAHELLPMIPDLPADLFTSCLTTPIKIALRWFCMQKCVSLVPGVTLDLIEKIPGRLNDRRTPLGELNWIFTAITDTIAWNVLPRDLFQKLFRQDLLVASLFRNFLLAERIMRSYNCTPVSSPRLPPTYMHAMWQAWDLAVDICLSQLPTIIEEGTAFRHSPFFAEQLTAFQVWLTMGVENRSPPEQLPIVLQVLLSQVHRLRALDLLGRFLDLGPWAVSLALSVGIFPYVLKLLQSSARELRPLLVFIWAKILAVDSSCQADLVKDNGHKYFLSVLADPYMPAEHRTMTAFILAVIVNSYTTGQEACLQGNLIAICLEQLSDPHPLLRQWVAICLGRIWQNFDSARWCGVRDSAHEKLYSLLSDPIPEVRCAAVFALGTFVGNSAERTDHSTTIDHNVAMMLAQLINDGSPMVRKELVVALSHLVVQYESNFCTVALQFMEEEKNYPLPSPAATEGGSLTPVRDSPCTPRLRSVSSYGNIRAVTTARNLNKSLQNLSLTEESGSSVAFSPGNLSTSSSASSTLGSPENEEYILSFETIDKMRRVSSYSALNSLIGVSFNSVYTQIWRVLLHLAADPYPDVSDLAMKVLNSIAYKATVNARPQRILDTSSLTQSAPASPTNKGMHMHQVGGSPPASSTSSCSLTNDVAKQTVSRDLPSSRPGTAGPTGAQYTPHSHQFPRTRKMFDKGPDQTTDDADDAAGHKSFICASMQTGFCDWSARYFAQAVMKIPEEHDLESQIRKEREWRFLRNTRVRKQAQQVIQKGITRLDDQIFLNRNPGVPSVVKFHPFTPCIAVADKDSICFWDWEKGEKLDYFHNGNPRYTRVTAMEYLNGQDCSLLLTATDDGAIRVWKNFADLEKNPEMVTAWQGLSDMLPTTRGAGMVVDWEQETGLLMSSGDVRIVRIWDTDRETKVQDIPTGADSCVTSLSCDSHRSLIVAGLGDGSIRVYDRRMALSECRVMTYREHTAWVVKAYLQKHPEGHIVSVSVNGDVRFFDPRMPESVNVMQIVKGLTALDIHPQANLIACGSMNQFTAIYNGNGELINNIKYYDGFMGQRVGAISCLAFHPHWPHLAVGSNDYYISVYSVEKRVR

SMILES	Activity
C=C(C)[C@@]12OC3(c4ccccc4)O[C@@H]1[C@@H]1[C@H](O)[C@](Cl)(COC(=O)c4ccccc4)[C@@H](OC(=O)CCCCCNC(=O)CCCC[C@@H]4SC[C@@H]5NC(=O)N[C@@H]54)[C@]4(O)C(=O)C(C)=C[C@H]4[C@@]1(O3)[C@H](C)[C@H]2OC(C)=O	Active
